Measurements: ChEMBL document CHEMBL1128274, “6-Aminoquinolones: a new class of quinolone antibacterials?” (1995)
Converted amounts (≈) assume the structure as drawn.

Legend:
Type in all cases: functional
Escherichia coli [1] = assay: Tested in vitro for inhibitory activity against gram negative bacteria Escherichia coli ATCC 8739 strain
Enterobacter cloacae = assay: Tested in vitro for inhibitory activity against gram negative bacteria Enterobacter cloacae OMNFI 174 strain.
[2] = system: Staphylococcus epidermidis; assay: Tested in vitro for inhibitory activity against gram positive bacteria Staphylococcus epidermidis CPHL A2 strain
Pseudomonas aeruginosa = assay: Tested in vitro for inhibitory activity against gram negative bacteria Pseudomonas aeruginosa ATCC 9027 strain
Enterococcus faecalis = assay: Tested in vitro for inhibitory activity against gram positive bacteria Streptococcus faecalis LEP Br strain
Staphylococcus aureus [3] = assay: Tested in vitro for inhibitory activity against gram positive bacteria Staphylococcus aureus ATCC 6538 strain
[4] = system: Staphylococcus epidermidis; assay: Tested in vitro for inhibitory activity against gram positive bacteria Staphylococcus epidermidis HCF berset C strain
Escherichia coli [5] = assay: Tested in vitro for inhibitory activity against gram negative bacteria Escherichia coli ISF 432 strain.
Staphylococcus aureus [6] = assay: Tested in vitro for inhibitory activity against gram positive bacteria Staphylococcus aureus MPR 5 strain
Providencia stuartii = assay: Tested in vitro for inhibitory activity against gram negative bacteria Providencia stuartii CNUR 5 strain
[7] = system: Acinetobacter calcoaceticus; assay: Tested in vitro for inhibitory activity against gram negative bacteria Acinetobacter calcoaceticus OSMPV 113 strain.
Klebsiella pneumoniae = assay: Tested in vitro for inhibitory activity against gram negative bacteria Klebsiella pneumoniae ATCC 10031 strain
Shigella = assay: Tested in vitro for inhibitory activity against gram negative bacteria Shigella enteritidis
Escherichia coli [8] = assay: Tested in vitro for inhibitory activity against gram negative bacteria Escherichia coli ISF 432 cell lines at 25 ug/mL
Escherichia coli [9] = assay: Tested in vitro for inhibitory activity against gram negative bacteria Escherichia coli ATCC 8739 cell lines at 25 ug/mL

O=C(O)c1cn(C2CC2)c2c(F)c(N3CCSCC3)c(F)cc2c1=O
MIC (Escherichia coli [1]): 0.01 µg/mL (≈ 0.0273 µM)
MIC (Enterobacter cloacae): 0.25 µg/mL (≈ 0.682 µM)
MIC [2]: 0.06 µg/mL (≈ 0.164 µM)
MIC (Pseudomonas aeruginosa): 1 µg/mL (≈ 2.73 µM)
MIC (Enterococcus faecalis): 0.5 µg/mL (≈ 1.36 µM)
MIC (Staphylococcus aureus [3]): 0.03 µg/mL (≈ 0.0819 µM)
MIC [4]: 0.06 µg/mL (≈ 0.164 µM)
MIC (Escherichia coli [5]): 0.008 µg/mL (≈ 0.0218 µM)
MIC (Staphylococcus aureus [6]): 0.03 µg/mL (≈ 0.0819 µM)
MIC (Providencia stuartii): 0.12 µg/mL (≈ 0.328 µM)
MIC [7]: 1 µg/mL (≈ 2.73 µM)
MIC (Klebsiella pneumoniae): 0.008 µg/mL (≈ 0.0218 µM)
MIC (Shigella): 0.25 µg/mL (≈ 0.682 µM)

NCCN1CCN(c2cc3c(cc2N)c(=O)c(C(=O)O)cn3C2CC2)CC1
MIC (Escherichia coli [1]): 0.5 µg/mL (≈ 1.35 µM)
MIC (Enterobacter cloacae): 2 µg/mL (≈ 5.38 µM)
MIC [2]: 64 µg/mL (≈ 172 µM)
MIC (Pseudomonas aeruginosa): 32 µg/mL (≈ 86.2 µM)
MIC (Enterococcus faecalis): 128 µg/mL (≈ 345 µM)
MIC (Staphylococcus aureus [3]): 128 µg/mL (≈ 345 µM)
MIC [4]: 32 µg/mL (≈ 86.2 µM)
MIC (Escherichia coli [5]): 0.5 µg/mL (≈ 1.35 µM)
MIC (Staphylococcus aureus [6]): 128 µg/mL (≈ 345 µM)
MIC (Providencia stuartii): 128 µg/mL (≈ 345 µM)
MIC [7]: 32 µg/mL (≈ 86.2 µM)
MIC (Klebsiella pneumoniae): 0.5 µg/mL (≈ 1.35 µM)
MIC (Shigella): 2 µg/mL (≈ 5.38 µM)

NCCSc1cc2c(cc1N)c(=O)c(C(=O)O)cn2C1CC1
MIC (Escherichia coli [1]): 1 µg/mL (≈ 3.13 µM)
MIC (Enterobacter cloacae): 128 µg/mL (≈ 401 µM)
MIC [2]: 128 µg/mL (≈ 401 µM)
MIC (Pseudomonas aeruginosa): 128 µg/mL (≈ 401 µM)
MIC (Enterococcus faecalis): 128 µg/mL (≈ 401 µM)
MIC (Staphylococcus aureus [3]): 128 µg/mL (≈ 401 µM)
MIC [4]: 128 µg/mL (≈ 401 µM)
MIC (Escherichia coli [5]): 1 µg/mL (≈ 3.13 µM)
MIC (Staphylococcus aureus [6]): 128 µg/mL (≈ 401 µM)
MIC (Providencia stuartii): 128 µg/mL (≈ 401 µM)
MIC [7]: 128 µg/mL (≈ 401 µM)
MIC (Klebsiella pneumoniae): 2 µg/mL (≈ 6.26 µM)
MIC (Shigella): 128 µg/mL (≈ 401 µM)

CC(C)(C)n1cc(C(=O)O)c(=O)c2cc(N)c(N3CCc4ccccc4C3)cc21
MIC (Escherichia coli [1]): 0.12 µg/mL (≈ 0.307 µM)
MIC (Enterobacter cloacae): 8 µg/mL (≈ 20.4 µM)
MIC [2]: 0.5 µg/mL (≈ 1.28 µM)
MIC (Pseudomonas aeruginosa): 32 µg/mL (≈ 81.7 µM)
MIC (Enterococcus faecalis): 8 µg/mL (≈ 20.4 µM)
MIC (Staphylococcus aureus [3]): 0.25 µg/mL (≈ 0.639 µM)
MIC [4]: 1 µg/mL (≈ 2.55 µM)
MIC (Escherichia coli [5]): 0.12 µg/mL (≈ 0.307 µM)
MIC (Staphylococcus aureus [6]): 0.5 µg/mL (≈ 1.28 µM)
MIC (Providencia stuartii): 4 µg/mL (≈ 10.2 µM)
MIC [7]: 2 µg/mL (≈ 5.11 µM)
MIC (Klebsiella pneumoniae): 0.12 µg/mL (≈ 0.307 µM)
MIC (Shigella): 8 µg/mL (≈ 20.4 µM)

CC(=O)NC1CCN(c2cc3c(cc2N)c(=O)c(C(=O)O)cn3C2CC2)C1 (stereo not drawn)
MIC (Escherichia coli [1]): 4 µg/mL (≈ 10.8 µM)
MIC (Enterobacter cloacae): 128 µg/mL (≈ 346 µM)
MIC [2]: 128 µg/mL (≈ 346 µM)
MIC (Pseudomonas aeruginosa): 128 µg/mL (≈ 346 µM)
MIC (Enterococcus faecalis): 128 µg/mL (≈ 346 µM)
MIC (Staphylococcus aureus [3]): 128 µg/mL (≈ 346 µM)
MIC [4]: 128 µg/mL (≈ 346 µM)
MIC (Escherichia coli [5]): 4 µg/mL (≈ 10.8 µM)
MIC (Staphylococcus aureus [6]): 128 µg/mL (≈ 346 µM)
MIC (Providencia stuartii): 128 µg/mL (≈ 346 µM)
MIC [7]: 128 µg/mL (≈ 346 µM)
MIC (Klebsiella pneumoniae): 4 µg/mL (≈ 10.8 µM)
MIC (Shigella): 128 µg/mL (≈ 346 µM)

Nc1cc2c(=O)c(C(=O)O)cn(C3CC3)c2cc1N1CCC(O)CC1
MIC (Escherichia coli [1]): 0.03 µg/mL (≈ 0.0874 µM)
MIC (Enterobacter cloacae): 2 µg/mL (≈ 5.82 µM)
MIC [2]: 2 µg/mL (≈ 5.82 µM)
MIC (Pseudomonas aeruginosa): 8 µg/mL (≈ 23.3 µM)
MIC (Enterococcus faecalis): 8 µg/mL (≈ 23.3 µM)
MIC (Staphylococcus aureus [3]): 4 µg/mL (≈ 11.6 µM)
MIC [4]: 4 µg/mL (≈ 11.6 µM)
MIC (Escherichia coli [5]): 0.03 µg/mL (≈ 0.0874 µM)
MIC (Staphylococcus aureus [6]): 4 µg/mL (≈ 11.6 µM)
MIC (Providencia stuartii): 8 µg/mL (≈ 23.3 µM)
MIC [7]: 2 µg/mL (≈ 5.82 µM)
MIC (Klebsiella pneumoniae): 0.03 µg/mL (≈ 0.0874 µM)
MIC (Shigella): 2 µg/mL (≈ 5.82 µM)

CN1CCN(c2c(N)cc3c(=O)c(C(=O)O)cn(C4CC4)c3c2F)CC1
MIC (Escherichia coli [8]): 0.05 µg/mL (≈ 0.139 µM)
MIC (Enterobacter cloacae): 0.25 µg/mL (≈ 0.694 µM)
MIC [2]: 4 µg/mL (≈ 11.1 µM)
MIC (Pseudomonas aeruginosa): 2 µg/mL (≈ 5.55 µM)
MIC (Enterococcus faecalis): 64 µg/mL (≈ 178 µM)
MIC (Staphylococcus aureus [3]): 4 µg/mL (≈ 11.1 µM)
MIC [4]: 8 µg/mL (≈ 22.2 µM)
MIC (Staphylococcus aureus [6]): 4 µg/mL (≈ 11.1 µM)
MIC (Providencia stuartii): 4 µg/mL (≈ 11.1 µM)
MIC [7]: 8 µg/mL (≈ 22.2 µM)
MIC (Klebsiella pneumoniae): 0.05 µg/mL (≈ 0.139 µM)
MIC (Shigella): 0.25 µg/mL (≈ 0.694 µM)
MIC (Escherichia coli [9]): 1 µg/mL (≈ 2.77 µM)

CC(C)(C)n1cc(C(=O)O)c(=O)c2cc(N)c(N3CCCC3)cc21
MIC (Escherichia coli [1]): 0.12 µg/mL (≈ 0.364 µM)
MIC (Enterobacter cloacae): 16 µg/mL (≈ 48.6 µM)
MIC [2]: 8 µg/mL (≈ 24.3 µM)
MIC (Pseudomonas aeruginosa): 64 µg/mL (≈ 194 µM)
MIC (Enterococcus faecalis): 128 µg/mL (≈ 389 µM)
MIC (Staphylococcus aureus [3]): 4 µg/mL (≈ 12.1 µM)
MIC [4]: 8 µg/mL (≈ 24.3 µM)
MIC (Escherichia coli [5]): 0.12 µg/mL (≈ 0.364 µM)
MIC (Staphylococcus aureus [6]): 8 µg/mL (≈ 24.3 µM)
MIC (Providencia stuartii): 64 µg/mL (≈ 194 µM)
MIC [7]: 16 µg/mL (≈ 48.6 µM)
MIC (Klebsiella pneumoniae): 0.12 µg/mL (≈ 0.364 µM)
MIC (Shigella): 32 µg/mL (≈ 97.1 µM)

CN1CCN(c2cc3c(cc2N)c(=O)c(C(=O)O)cn3C(C)(C)C)CC1
MIC (Escherichia coli [8]): 0.06 µg/mL (≈ 0.167 µM)
MIC (Enterobacter cloacae): 1 µg/mL (≈ 2.79 µM)
MIC [2]: 2 µg/mL (≈ 5.58 µM)
MIC (Pseudomonas aeruginosa): 4 µg/mL (≈ 11.2 µM)
MIC (Enterococcus faecalis): 32 µg/mL (≈ 89.3 µM)
MIC (Staphylococcus aureus [3]): 2 µg/mL (≈ 5.58 µM)
MIC [4]: 4 µg/mL (≈ 11.2 µM)
MIC (Staphylococcus aureus [6]): 2 µg/mL (≈ 5.58 µM)
MIC (Providencia stuartii): 4 µg/mL (≈ 11.2 µM)
MIC [7]: 4 µg/mL (≈ 11.2 µM)
MIC (Klebsiella pneumoniae): 0.06 µg/mL (≈ 0.167 µM)
MIC (Shigella): 1 µg/mL (≈ 2.79 µM)
MIC (Escherichia coli [9]): 0.06 µg/mL (≈ 0.167 µM)

O=C(O)c1cn(C2CC2)c2cc(N3CCNCC3)c(F)cc2c1=O [CIPROFLOXACIN]
MIC [2]: 0.06 µg/mL (≈ 0.181 µM)
MIC (Pseudomonas aeruginosa): 0.06 µg/mL (≈ 0.181 µM)
MIC (Enterococcus faecalis): 0.5 µg/mL (≈ 1.51 µM)
MIC (Staphylococcus aureus [3]): 0.12 µg/mL (≈ 0.362 µM)
MIC [4]: 0.12 µg/mL (≈ 0.362 µM)
MIC (Staphylococcus aureus [6]): 0.12 µg/mL (≈ 0.362 µM)
MIC (Providencia stuartii): 0.06 µg/mL (≈ 0.181 µM)
MIC [7]: 0.06 µg/mL (≈ 0.181 µM)
MIC (Klebsiella pneumoniae): 0.03 µg/mL (≈ 0.0905 µM)
MIC (Shigella): 0.03 µg/mL (≈ 0.0905 µM)

Nc1cc2c(=O)c(C(=O)O)cn(C3CC3)c2cc1N1CCC(N)C1 (stereo not drawn)
MIC (Escherichia coli [1]): 1 µg/mL (≈ 3.05 µM)
MIC (Enterobacter cloacae): 16 µg/mL (≈ 48.7 µM)
MIC [2]: 128 µg/mL (≈ 390 µM)
MIC (Pseudomonas aeruginosa): 16 µg/mL (≈ 48.7 µM)
MIC (Enterococcus faecalis): 128 µg/mL (≈ 390 µM)
MIC (Staphylococcus aureus [3]): 128 µg/mL (≈ 390 µM)
MIC [4]: 128 µg/mL (≈ 390 µM)
MIC (Escherichia coli [5]): 0.5 µg/mL (≈ 1.52 µM)
MIC (Staphylococcus aureus [6]): 128 µg/mL (≈ 390 µM)
MIC (Providencia stuartii): 128 µg/mL (≈ 390 µM)
MIC [7]: 128 µg/mL (≈ 390 µM)
MIC (Klebsiella pneumoniae): 1 µg/mL (≈ 3.05 µM)
MIC (Shigella): 16 µg/mL (≈ 48.7 µM)

CN1CCN(c2c(F)c(N)c3c(=O)c(C(=O)O)cn(C4CC4)c3c2F)CC1
MIC (Escherichia coli [1]): 0.004 µg/mL (≈ 0.0106 µM)
MIC (Enterobacter cloacae): 0.03 µg/mL (≈ 0.0793 µM)
MIC [2]: 0.12 µg/mL (≈ 0.317 µM)
MIC (Pseudomonas aeruginosa): 0.25 µg/mL (≈ 0.661 µM)
MIC (Enterococcus faecalis): 0.5 µg/mL (≈ 1.32 µM)
MIC (Staphylococcus aureus [3]): 0.06 µg/mL (≈ 0.159 µM)
MIC [4]: 0.25 µg/mL (≈ 0.661 µM)
MIC (Escherichia coli [5]): 0.002 µg/mL (≈ 0.00529 µM)
MIC (Staphylococcus aureus [6]): 0.06 µg/mL (≈ 0.159 µM)
MIC (Providencia stuartii): 0.06 µg/mL (≈ 0.159 µM)
MIC [7]: 0.05 µg/mL (≈ 0.132 µM)
MIC (Klebsiella pneumoniae): 0.002 µg/mL (≈ 0.00529 µM)
MIC (Shigella): 0.03 µg/mL (≈ 0.0793 µM)
